For assay [1], the system named is C57BL6/J mice. Put plainly: Indirect calorimetry (CLAMS) in fructose-fed C57BL6 mice. The note with it: 100 mg/kg oral gavage, refed mice with RER >1. The format is in vivo, mouse. The protocol:
Materials and Methods. All experiments were carried out using the methods approved by the Animal Research Ethics Board at McMaster University, Canada (Steinberg Laboratory Animal Utilization Protocol #16-12-42). 8-Week-old male C57BL6/J mice were ordered from Jackson Laboratory, Bar Harbor, Me. and housed at the McMaster University Central Animal Facility. Animals were housed in the ventilated cages racks system and provided with ad libitum access to normal chow diet (Teklad 8640 22/5 rodent diet, procured from Envigo, Mississauga ON) and water supplemented with fructose (30% weight/volume, made fresh weekly) for at least 2-weeks before testing commenced. […] Data were analyzed using one-way analyses of variance followed by a Tukey's multiple comparisons post hoc test where appropriate. […]
Experimental and Results. Respiratory Exchange Ratio (RER) and related metabolic parameters were measured using the Comprehensive Lab Animal Monitoring System (CLAMS, Columbus Instruments, Columbus, Ohio). […] RER was monitored and those animals with RER values >1 were administered either vehicle (1.5% Carboxymethyl cellulose and 0.2% Tween 20) alone or vehicle containing Compound I-1 or Compound I-32 at a dose of 100 mg/kg via oral gavage. Animals remained in the metabolic cages and RER, activity level, locomotor activity, and food intake were monitored for 24 hours. […]

Assay [2] deals with T1, Human ACC2 (Homo sapiens, UniProt O00763).
T1 construct: FLAG (C); His (C); purchased BPS Biosciences 50201; host or cells: Baculovirus infected Sf9 cells
T1 sequence (O00763 whole entry): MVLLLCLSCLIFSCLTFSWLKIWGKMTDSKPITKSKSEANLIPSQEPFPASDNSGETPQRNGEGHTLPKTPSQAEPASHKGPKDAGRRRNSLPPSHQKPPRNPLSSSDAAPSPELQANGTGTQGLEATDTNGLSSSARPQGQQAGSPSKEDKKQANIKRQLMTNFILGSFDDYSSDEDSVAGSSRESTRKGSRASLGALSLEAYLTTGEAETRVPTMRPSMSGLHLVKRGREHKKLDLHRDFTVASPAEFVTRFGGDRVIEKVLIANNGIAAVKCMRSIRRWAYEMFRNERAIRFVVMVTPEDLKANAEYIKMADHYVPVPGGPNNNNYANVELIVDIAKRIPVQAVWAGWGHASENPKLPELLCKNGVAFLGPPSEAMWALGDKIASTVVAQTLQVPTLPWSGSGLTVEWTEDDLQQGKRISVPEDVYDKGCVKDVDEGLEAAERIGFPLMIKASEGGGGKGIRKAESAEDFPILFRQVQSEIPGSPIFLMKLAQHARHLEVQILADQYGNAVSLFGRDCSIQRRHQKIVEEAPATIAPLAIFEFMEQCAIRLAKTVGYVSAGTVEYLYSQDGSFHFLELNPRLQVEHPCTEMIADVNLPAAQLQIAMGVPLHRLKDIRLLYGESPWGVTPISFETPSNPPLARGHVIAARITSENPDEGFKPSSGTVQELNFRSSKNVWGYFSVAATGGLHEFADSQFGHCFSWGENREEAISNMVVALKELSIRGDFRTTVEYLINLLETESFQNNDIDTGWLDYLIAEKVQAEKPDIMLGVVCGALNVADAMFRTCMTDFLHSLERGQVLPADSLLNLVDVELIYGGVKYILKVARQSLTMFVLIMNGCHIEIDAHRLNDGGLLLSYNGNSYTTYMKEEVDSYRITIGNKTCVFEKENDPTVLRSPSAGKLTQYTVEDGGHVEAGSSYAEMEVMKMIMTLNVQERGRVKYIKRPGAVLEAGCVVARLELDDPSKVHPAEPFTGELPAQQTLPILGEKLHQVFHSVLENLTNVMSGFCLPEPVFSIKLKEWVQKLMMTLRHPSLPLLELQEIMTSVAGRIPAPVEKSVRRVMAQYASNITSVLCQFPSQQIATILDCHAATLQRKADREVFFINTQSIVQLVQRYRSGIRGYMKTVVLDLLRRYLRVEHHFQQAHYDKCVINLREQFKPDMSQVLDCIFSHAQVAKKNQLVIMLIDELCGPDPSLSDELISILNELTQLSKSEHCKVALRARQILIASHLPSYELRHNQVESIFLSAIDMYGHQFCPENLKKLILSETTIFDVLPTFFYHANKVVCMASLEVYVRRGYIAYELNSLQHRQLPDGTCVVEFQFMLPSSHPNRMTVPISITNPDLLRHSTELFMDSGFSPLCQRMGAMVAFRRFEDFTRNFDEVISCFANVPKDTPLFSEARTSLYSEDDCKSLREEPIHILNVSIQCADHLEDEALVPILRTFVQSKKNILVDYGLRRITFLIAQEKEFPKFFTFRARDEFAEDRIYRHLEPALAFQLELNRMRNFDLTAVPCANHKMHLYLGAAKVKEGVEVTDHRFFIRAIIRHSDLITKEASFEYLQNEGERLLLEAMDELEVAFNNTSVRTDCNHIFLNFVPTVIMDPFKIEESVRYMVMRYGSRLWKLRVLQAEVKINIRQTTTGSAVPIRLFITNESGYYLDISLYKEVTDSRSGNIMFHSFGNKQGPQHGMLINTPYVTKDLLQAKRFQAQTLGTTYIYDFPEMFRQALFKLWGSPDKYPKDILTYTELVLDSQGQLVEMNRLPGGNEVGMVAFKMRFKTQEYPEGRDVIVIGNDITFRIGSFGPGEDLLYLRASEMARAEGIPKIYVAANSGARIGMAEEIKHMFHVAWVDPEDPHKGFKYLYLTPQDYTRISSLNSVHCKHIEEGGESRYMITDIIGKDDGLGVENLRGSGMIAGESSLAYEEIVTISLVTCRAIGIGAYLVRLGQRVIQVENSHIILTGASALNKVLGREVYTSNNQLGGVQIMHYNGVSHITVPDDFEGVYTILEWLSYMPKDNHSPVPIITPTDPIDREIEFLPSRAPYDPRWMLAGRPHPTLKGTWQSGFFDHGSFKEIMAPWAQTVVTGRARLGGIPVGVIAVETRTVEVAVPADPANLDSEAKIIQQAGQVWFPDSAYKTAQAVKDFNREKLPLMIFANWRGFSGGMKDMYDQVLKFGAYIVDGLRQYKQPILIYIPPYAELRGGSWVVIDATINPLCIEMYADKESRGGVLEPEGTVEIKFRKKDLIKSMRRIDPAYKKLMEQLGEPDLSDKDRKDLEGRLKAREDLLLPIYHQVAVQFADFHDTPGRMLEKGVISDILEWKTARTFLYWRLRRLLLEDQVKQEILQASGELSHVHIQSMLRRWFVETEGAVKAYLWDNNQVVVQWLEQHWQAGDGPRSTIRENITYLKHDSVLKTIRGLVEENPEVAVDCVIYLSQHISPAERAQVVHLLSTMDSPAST
Put plainly: ACC2 enzymatic assay (ADP-Glo). The format is biochemical. As to conditions: recombinant human ACC2 1 nM, 10 μM ATP, 10 μM acetyl CoA; Run 1-3; read-out: Compound IC50 (M) ACC2. The protocol: Human ACC1 (Cat#50202 Lot #120830) and ACC2 (Cat #50201 Lot #160217) were obtained from BPS Biosciences, San Diego, Calif. 92121. Human ACC1 had C-terminal flag and His-tags with a MW of 270 KDa after purification from Baculovirus infected Sf9 cell expression system and came as a solution in 50 mM Tris-HCl, pH 8.0, 500 mM NaCl, 10% glycerol, 1 mM DTT, 100 μg/ml FLAG peptide with 70% purity. The stock concentration was 0.25 mg/ml corresponding to 0.926 μM. Human ACC2 was also purified from Baculovirus infected Sf9 expression system. […] The stock concentration was 0.1 mg/ml corresponding to 0.36 μM. The assay buffer for measuring the activity of ACC contained: 30 mM HEPES (pH 7.4), 2 mM MgCl2, 0.01% Brij35, 2 mM DTT, 1% DMSO (solvent for compound). For ACC1 and ACC2 assays, the following concentrations of substrate and cofactors were used: 12 mM NaHCO3, 10 μM acetyl CoA, 10 μM ATP, and 2 mM K-citrate. The recombinant human enzyme was used at 5 nM for ACC1 and 1 nM for ACC2. In brief, enzyme alone in the above buffer without substrate was used for background. All test materials were dissolved in 100% DMSO using acoustic technology (Echo550). The prepared solution was preincubated for 15 min followed by the addition of 5 μL/well of ADP standard. ATP was then added to start the reaction. The assay contents were spun and briefly shaken followed by incubation at room temperature for 1 h. At the end of completion of assay, 5 μL of ADP-Glo was added to each well to stop the reaction. The contents were mixed, spun and incubated at room temperature for 40 min followed by the addition of 10 μL/well of ADP detection reagent. The contents were spun, mixed and covered with plastic to measure luminescence. […] The light generated, measured in a luminometer, correlates to the amount of ADP generated in the ACC assay, which is indicative of ACC activity.
The enzyme concentrations for ACC1 and ACC2 were 5 nM and 1 nM, respectively.
Data represent nM or μM ADP produced, % Activity (relative to no inhibitor controls), and curve fits were performed by GraphPad Prism software. […]
(ADP-Glo first removes unused ATP, then detects ADP through luciferase.)

A word on the IC50: it is the concentration that inhibits the measured activity by half.

Molecules are shown by their SMILES. Several values for one entry are separate records, joined by “and”; a condition that tells them apart may be missing. Equal entries are not always repeated.

Take `CC(C)(CCCCc1ccc(CCCCC(C)(C)C(=O)O)cc1)C(=O)O` [Compound I-1, 6-[4-(5-carboxy-5-methylhexyl)-phenyl]-2,2-dimethylhexanoic acid]: in assay [1], the “Respiratory Exchange Ratio (RER) compared to vehicle treated group” value was “significant reduction in the RER”. Consider `CC(C)(CCCCc1cccc(CCCCC(C)(C)C(=O)SCCNC(=O)CCNC(=O)[C@H](O)C(C)(C)COP(=O)(O)OP(=O)(O)OC[C@H]2O[C@@H](n3cnc4c(N)ncnc43)[C@H](O)[C@@H]2OP(=O)(O)O)c1)C(=O)O` [Compound I-32-CoA, 6-[3-(5-Carboxy-5-methylhexyl)-phenyl]-2,2-dimethylhexanoic acid Coenzyme A Ester], for which, in assay [2], the IC50 is 5.02e-06 M and 4.22e-06 M and 3.33e-06 M. Same read-out and setting: next, `CC(C)(CCCCc1ccc(CCCCC(C)(C)C(=O)SCCNC(=O)CCNC(=O)[C@H](O)C(C)(C)COP(=O)(O)OP(=O)(O)OC[C@H]2O[C@@H](n3cnc4c(N)ncnc43)[C@H](O)[C@@H]2OP(=O)(O)O)cc1)C(=O)O` [Compound I-1-CoA, 6-[4-(5-carboxy-5-methylhexyl)-phenyl]-2,2-dimethylhexanoic acid Coenzyme A ester]: 9.41e-06 M and 7.72e-06 M and 9.06e-06 M. Regarding `CC(C)(CCCCc1cccc(CCCCC(C)(C)C(=O)O)c1)C(=O)O` [Compound I-32, 6-[3-(5-carboxy-5-methylhexyl)-phenyl]-2,2-dimethylhexanoic acid], in assay [1], the “Respiratory Exchange Ratio (RER) compared to vehicle treated group” value is “significant reduction in the RER”.

The record behind these values is patent publication US11730712B2, “Functionalized long-chain hydrocarbon mono- and di-carboxylic acids and derivatives thereof, and their use for the prevention or treatment of disease” (ESPERVITA THERAPEUTICS, INC., priority 2021, dated 2023).
